Measured values as given in patent US10561629B2, “Food containing glycine and use thereof” (AJINOMOTO CO., INC., priority 2004, dated 2020).
Read-outs that look alike come from different tables or passages of the source.

Legend:
[1] = one participant, 1.0-1.5 g tablet glycine, trip to East Coast USA, vs previous similar trips
Description: In the Figure, glycine (substantially pure tablet glycine containing only excipient and flavor) was taken at the time point marked with an arrow, wherein 1.0 g was taken on “June 20” and “June 21” and 1.5 g was taken on “June 22”-“June 26” and “June 29”.

[2] = for Heavy sleepiness (1 pm to 5 pm next afternoon) / Mild sleepiness (1 pm to 5 pm next afternoon) / No sleepiness (1 pm to 5 pm next afternoon): intake of glycine 1.5 g before sleep
Description: Three test participants (test participants A-C, body weight 64-74 kg) who were then visiting the U.S. for 5 days took glycine (1.5 g, substantially pure tablet glycine containing only excipient and flavor) before sleep and evaluated the sleepiness felt from 1 pm to 5 pm the next afternoon in 3 levels as compared to the absence of glycine.

[3] = 3 g before bed
Description: The test participant (body weight 45 kg) took, before going to bed, 3 g of glycine directly or upon addition to various foods (see, Table 3). The content (amount based on amino acid) of an amino acid other than glycine or a substance that can be hydrolyzed to give an amino acid other than glycine in these foods was generally 0 to 4 g. As compared to free of glycine intake, easiness of falling asleep and realization of deep sleep upon waking the next morning were recorded and summarized in Table 3.

[4] = Description: Table 5 reports the bowel movements on the next morning and the corresponding number of days.
[5] = beagles, oral 30 or 300 mg/kg
Description: Glycine (substantially pure glycine powder) was administered at 0, 30, or 300 mg/kg (0 mg/kg for control, CTRL) to beagles, and using the beagles, the R-R interval in electrocardiogram was measured by a telemetry system as an index of sympathetic activity. The measurement was conducted in the night after glycine administration. From the R-R interval after oral administration of glycine, moreover, sympathetic activity ((low frequency component LF)/(high frequency component HF)) and parasympathetic activity (high frequency component HF) were examined by power spectrum analysis.

[6] = test participant A, in water before bed
Description: The test participant A (body weight 45 kg) took glycine (substantially pure powder) in an amount shown in Table 6 before going to bed by dissolving same in water, and recorded the level of realization of deep sleep. When the realization of deep sleep increased than usual, “+” was marked, when the realization of deep sleep was almost the same as usual, “±” was marked and when it became worse, “−” was marked.

[7] = rats, 2 g/kg, mean±standard error
Description: Glycine (substantially pure glycine powder) was administered to rats at 0 g/kg and 2 g/kg (0 g/kg for control) and using the rat, spontaneous electroencephalogram and cervix electromyogram were recorded through an electrode placed in the cortex hippocampus, and further, the amount of spontaneous motor activity was measured by an infrared ray monitor. The sleep-wake cycle was analyzed from the electroencephalogram, electromyogram and behavior record (kymogram), and percent occupation of light period and dark period and latency time were calculated.

[8] = intake at 0.1 g per day; cited from earlier work
[9] = Voluntary comments on quality of sleep, 77 participants (Experimental Example 5); settings: 3 g glycine
[10] = addition to Japanese tea, 10 days of testing
[11] = addition to herb tea, 5 days of testing
[12] = addition to hot milk, 4 days of testing
[13] = addition to hot water or water, 14 days of testing
[14] = addition to yoghurt, 7 days of testing
[15] = test participant A, tablet intake (1 g) before bed
[16] = test participant B, intake (3 g) with yoghurt before bed
[17] = test participant B, powder intake (3 g) before bed
[18] = 0-3 hr after administration, dark period
[19] = 0-3 hr after administration, light period
[20] = 4-6 hr after administration, dark period
[21] = 4-6 hr after administration, light period
[22] = voluntary comments of 77 participants

With NCC(=O)O [glycine, Glycine] the arousal during sleep [1] was “reduced or eliminated arousal during sleep”, the “sleepiness during the next daytime” value ([2]; all three test participants, 1.5 g before sleep, compared to absence of glycine) was “felt a lower level of sleepiness” and the “Heavy sleepiness (1 pm to 5 pm next afternoon)” value (from here on “Heavy sleepiness”) ([2]; test participant A) was 0 days. The “Mild sleepiness (1 pm to 5 pm next afternoon)” value (“Mild sleepiness” for short) ([2]; test participant A) was 2 days, the “No sleepiness (1 pm to 5 pm next afternoon)” value (“No sleepiness” below) ([2]; test participant A) was 2 days and the “Heavy sleepiness” value ([2]; test participant B) was 0 days. For the same compound, the “Mild sleepiness” value ([2]; test participant B) was 1 days, the “No sleepiness” value ([2]; test participant B) was 2 days and the “Heavy sleepiness” value ([2]; test participant C) was 0 days. The “Mild sleepiness” value ([2]; test participant C) was 0 days, the “No sleepiness” value ([2]; test participant C) was 1 days and the “Improved easiness of falling asleep” value [3, 10] was 9 days. For the same compound, the “Improved realization of deep sleep” value [3, 10] was 10 days, the “Improved easiness of falling asleep” value [3, 11] was 5 days and the “Improved realization of deep sleep” value [3, 11] was 5 days. The “Improved easiness of falling asleep” value [3, 12] was 4 days, the “Improved realization of deep sleep” value [3, 12] was 4 days and the “Improved easiness of falling asleep” value [3, 13] was 14 days. For the same compound, the “Improved realization of deep sleep” value [3, 13] was 14 days, the “Improved easiness of falling asleep” value [3, 14] was 7 days and the “Improved realization of deep sleep” value [3, 14] was 7 days. For the same compound, the “Improved easiness of falling asleep” value ([3]; powder, 3 days of testing) was 3 days, the “Improved realization of deep sleep” value ([3]; powder, 3 days of testing) was 3 days and the “No bowel movement (next morning)” value [4, 15] was 2 days. For the same compound, the “Presence of bowel movement (next morning)” value (“Presence of bowel movement” for short) [4, 15] was 10 days, the “No bowel movement (next morning)” value [4, 16] was 0 days and the “Presence of bowel movement” value [4, 16] was 4 days. For the same compound, the “No bowel movement (next morning)” value [4, 17] was 1 days, the “Presence of bowel movement” value [4, 17] was 7 days and the “R-R interval in electrocardiogram” value ([5]; 1-4 hr after administration, compared to control) was “increased”. For the same compound, the “parasympathetic activity (high frequency component HF)” value ([5]; power spectrum analysis of R-R interval) was “dominant”, the “Realization of deep sleep” value ([6]; 1/1 teaspoon, general amount 2.5 g) was “+” and the “Realization of deep sleep” value ([6]; ¼ teaspoon, general amount 0.6 g) was “+”. The “Realization of deep sleep” value ([6]; ½ teaspoon, general amount 1.2 g) was “+”, the “Percent occupation, fast wave sleep stage” value [7, 18] was 3.2 ± 1.7% and the “Percent occupation, slow wave sleep stage” value [7, 18] was 29.2 ± 6.5%. For the same compound, the “Percent occupation, waking stage” value [7, 18] was 67.6 ± 7.9%, the “Percent occupation, fast wave sleep stage” value [7, 19] was 5.5 ± 1.6% and the “Percent occupation, slow wave sleep stage” value [7, 19] was 54.9 ± 4.9%. For the same compound, the “Percent occupation, waking stage” value [7, 19] was 39.6 ± 6.0%, the “Percent occupation, fast wave sleep stage” value [7, 20] was 3.0 ± 0.7% and the “Percent occupation, slow wave sleep stage” value [7, 20] was 31.5 ± 2.8%. For the same compound, the “Percent occupation, waking stage” value [7, 20] was 65.6 ± 3.4%, the “Percent occupation, fast wave sleep stage” value [7, 21] was 13.4 ± 2.1% and the “Percent occupation, slow wave sleep stage” value [7, 21] was 65.9 ± 2.0%. For the same compound, the “Percent occupation, waking stage” value [7, 21] was 20.7 ± 0.8%, the “Amount of spontaneous motor activity at 6 hr after administration” value ([7]; dark period) was 19464 ± 2765 count and the “Latency time, fast wave sleep stage” value ([7]; dark period) was 118.2 ± 28.3 min. The “Latency time, slow wave sleep stage” value ([7]; dark period) was 78.6 ± 22.8 min, the “Amount of spontaneous motor activity at 6 hr after administration” value ([7]; light period) was 2316 ± 295 count and the “Latency time, fast wave sleep stage” value ([7]; light period) was 20.9 ± 3.4 min. The “Latency time, slow wave sleep stage” value ([7]; light period) was 8.5 ± 1.2 min, the memory and attention [8] was “increases memory and attention” and the “participants commenting that no effect was found” value ([9]; out of 77 participants) was 17 participants. For the same compound, the “participants commenting that the quality of sleep was improved” value ([9]; out of 77 participants) was 58 participants, the “participants commenting that the quality was degraded” value ([9]; out of 77 participants) was 2 participants and the “Awakening was fresh: Degrading effect” value [9, 22] was 1 person. The “Awakening was fresh: Enhancing effect on quality of sleep” value [9, 22] was 24 person, the “Deep sleep was realized: Degrading effect” value [9, 22] was 0 person and the “Deep sleep was realized: Enhancing effect on quality of sleep” value [9, 22] was 8 person. The “Did not wake up at midnight: Degrading effect” value [9, 22] was 1 person, the “Did not wake up at midnight: Enhancing effect on quality of sleep” value [9, 22] was 6 person and the “Fell asleep easily: Degrading effect” value [9, 22] was 0 person. The “Fell asleep easily: Enhancing effect on quality of sleep” value [9, 22] was 6 person, the “Had no dream: Degrading effect” value [9, 22] was 0 person and the “Had no dream: Enhancing effect on quality of sleep” value [9, 22] was 4 person. The “Sleep was deeper: Degrading effect” value [9, 22] was 0 person, the “Sleep was deeper: Enhancing effect on quality of sleep” value [9, 22] was 10 person and the “Slept well: Degrading effect” value [9, 22] was 0 person. The “Slept well: Enhancing effect on quality of sleep” value [9, 22] was 2 person, the “Snoring decreased: Degrading effect” value [9, 22] was 0 person and the “Snoring decreased: Enhancing effect on quality of sleep” value [9, 22] was 19 person. The “sleepiness during daytime reduced: Degrading effect” value [9, 22] was 0 person and the “sleepiness during daytime reduced: Enhancing effect on quality of sleep” value [9, 22] was 4 person.
